Measurements taken from PubChem BioAssay AID248 (DTP/NCI, 2004).
“And” between values parts separate entries of the source, which are not always exact repeats. Equal values may be shown once. Inconclusive results and toxic doses are left out. Rule as the data show it: active = T/C of 150% or more; inactive = T/C below 125%.

System: L1210 leukemia ip in BDF1 mice, survival T/C
Assay: NCI In Vivo Anticancer Drug Screen. Data for tumor model L1210 Leukemia (intraperitoneal) in B6D2F1 (BDF1) mice
Conditions: endpoint: mean survival time, higher = longer survival
Outline: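 Ratio derived from survival: compound-dosed mice over vehicle-dosed mice, all bearing a transplantable tumor.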

[1] = dose: 100.0 mg/kg/injection, schedule: Q04DX003 (ip), vehicle: Klucel (hydroxypropylcellulose) (HPC)
[2] = dose: 200.0 mg/kg/injection, schedule: Q04DX003 (ip), vehicle: Klucel (hydroxypropylcellulose) (HPC)
[3] = dose: 400.0 mg/kg/injection, schedule: Q04DX003 (ip), vehicle: Klucel (hydroxypropylcellulose) (HPC)
[4] = dose: 50.0 mg/kg/injection, schedule: Q01DX001 (ip), vehicle: saline
[5] = dose: 100.0 mg/kg/injection, schedule: Q01DX001 (ip), vehicle: saline
[6] = dose: 200.0 mg/kg/injection, schedule: Q01DX001 (ip), vehicle: saline
[7] = dose: 400.0 mg/kg/injection, schedule: Q01DX001 (ip), vehicle: saline
[8] = dose: 100.0 mg/kg/injection, schedule: Q01DX009 (ip), vehicle: saline
[9] = dose: 100.0 mg/kg/injection, schedule: Q04DX002 (ip), vehicle: saline
[10] = dose: 100.0 mg/kg/injection, schedule: Q04DX003 (ip), vehicle: saline
[11] = dose: 200.0 mg/kg/injection, schedule: Q01DX009 (ip), vehicle: saline
[12] = dose: 200.0 mg/kg/injection, schedule: Q04DX002 (ip), vehicle: saline
[13] = dose: 200.0 mg/kg/injection, schedule: Q04DX003 (ip), vehicle: saline
[14] = dose: 400.0 mg/kg/injection, schedule: Q04DX002 (ip), vehicle: saline
[15] = dose: 100.0 mg/kg/injection, schedule: Q01DX001 (ip), vehicle: Klucel (hydroxypropylcellulose) (HPC)
[16] = dose: 200.0 mg/kg/injection, schedule: Q01DX001 (ip), vehicle: Klucel (hydroxypropylcellulose) (HPC)
[17] = dose: 100.0 mg/kg/injection, schedule: Q01DX001 (ip), vehicle: carboxymethylcellulose (CMC)
[18] = dose: 100.0 mg/kg/injection, schedule: Q04DX003 (ip), vehicle: carboxymethylcellulose (CMC)
[19] = dose: 200.0 mg/kg/injection, schedule: Q01DX001 (ip), vehicle: carboxymethylcellulose (CMC)
[20] = dose: 200.0 mg/kg/injection, schedule: Q04DX003 (ip), vehicle: carboxymethylcellulose (CMC)
[21] = dose: 400.0 mg/kg/injection, schedule: Q01DX001 (ip), vehicle: carboxymethylcellulose (CMC)
[22] = dose: 400.0 mg/kg/injection, schedule: Q04DX003 (ip), vehicle: carboxymethylcellulose (CMC)
[23] = dose: 100.0 mg/kg/injection, schedule: Q01DX001 (ip), vehicle: saline with Tween-80
[24] = dose: 100.0 mg/kg/injection, schedule: Q01DX009 (ip), vehicle: Klucel (hydroxypropylcellulose) (HPC)
[25] = dose: 200.0 mg/kg/injection, schedule: Q01DX009 (ip), vehicle: Klucel (hydroxypropylcellulose) (HPC)
[26] = dose: 400.0 mg/kg/injection, schedule: Q01DX009 (ip), vehicle: Klucel (hydroxypropylcellulose) (HPC)
[27] = dose: 100.0 mg/kg/injection, schedule: Q01DX009 (ip), vehicle: saline with Tween-80
[28] = dose: 100.0 mg/kg/injection, schedule: Q04DX003 (ip), vehicle: saline with Tween-80
[29] = dose: 200.0 mg/kg/injection, schedule: Q04DX003 (ip), vehicle: saline with Tween-80
[30] = dose: 400.0 mg/kg/injection, schedule: Q04DX003 (ip), vehicle: saline with Tween-80
[31] = dose: 50.0 mg/kg/injection, schedule: Q01DX009 (ip), vehicle: saline

Measured: T/C

O=c1c2ccccc2ncn1CCCBr
inactive: dose: 75.0 mg/kg/injection, schedule: Q01DX009 (ip), vehicle: saline 95 % of control | dose: 150.0 mg/kg/injection, schedule: Q01DX009 (ip), vehicle: saline 103 % of control | dose: 300.0 mg/kg/injection, schedule: Q01DX009 (ip), vehicle: saline 95 % of control

COc1cccc2c1CCc1cc3c(nc1-2)-c1cccc(OC)c1CC3
inactive: [1] 103 % of control | [2] 100 % of control | [3] 101 % of control

COc1ccccc1CN1CCCN(Cc2ccccc2OC)C1c1cc(Cl)ccc1O
inactive: [4] 101 % of control | [5] 95 % of control | [6] 97 % of control | [7] 101 % of control

CN(C)Cc1c(Cl)cccc1C(O)c1ccccc1 (configuration not stated)
inactive: [4] 96 % of control | [5] 106 % of control | [6] 106 % of control | [7] 95 % of control

COC(=O)c1ccccc1Cn1ccnc1
inactive: [5] 108 % of control | [8] 102 % of control and 92 % of control | [9] 96 % of control and 103 % of control | [10] 115 % of control | [6] 101 % of control | [11] 94 % of control and 97 % of control | [12] 103 % of control and 105 % of control | [13] 101 % of control | [7] 97 % of control | [14] 100 % of control

Nc1cccc(/C=C/c2ccc([N+](=O)[O-])cc2)c1
inactive: [15] 91 % of control | [16] 87 % of control | dose: 400.0 mg/kg/injection, schedule: Q01DX001 (ip), vehicle: Klucel (hydroxypropylcellulose) (HPC) 94 % of control

CC(=O)OCC1OC(N2C(=O)/C(=C(/C)c3ccco3)SC2=S)C(OC(C)=O)C(OC(C)=O)C1OC(C)=O (configuration not stated)
inactive: dose: 25.0 mg/kg/injection, schedule: Q01DX005 (ip), vehicle: other 103 % of control | dose: 50.0 mg/kg/injection, schedule: Q01DX005 (ip), vehicle: other 98 % of control | dose: 100.0 mg/kg/injection, schedule: Q01DX005 (ip), vehicle: other 98 % of control | dose: 200.0 mg/kg/injection, schedule: Q01DX005 (ip), vehicle: other 98 % of control | dose: 400.0 mg/kg/injection, schedule: Q01DX005 (ip), vehicle: other 101 % of control

Cc1c(C(C)(C)C)cc(C(C)(C)C)c(O)c1[N+](=O)[O-]
inactive: [17] 93 % of control and 95 % of control | dose: 100.0 mg/kg/injection, schedule: Q04DX002 (ip), vehicle: carboxymethylcellulose (CMC) 90 % of control and 91 % of control | [18] 97 % of control and 98 % of control | [19] 95 % of control and 99 % of control and 111 % of control | dose: 200.0 mg/kg/injection, schedule: Q04DX002 (ip), vehicle: carboxymethylcellulose (CMC) 87 % of control and 89 % of control | [20] 96 % of control and 90 % of control | [21] 94 % of control and 101 % of control and 105 % of control | dose: 400.0 mg/kg/injection, schedule: Q04DX002 (ip), vehicle: carboxymethylcellulose (CMC) 96 % of control and 111 % of control | [22] 96 % of control and 87 % of control

CN(C)C(C#N)C(=O)c1ccccc1 (configuration not stated)
inactive: [5] 97 % of control and 98 % of control | [7] 93 % of control

OC1c2ccccc2CC1N1CCCCC1 (configuration not stated)
inactive: [23] 97 % of control

O=[N+]([O-])c1cc([N+](=O)[O-])c(/C=C/c2ccccc2)c([N+](=O)[O-])c1/C=C/c1ccccc1
inactive: [24] 104 % of control | [1] 97 % of control | [25] 98 % of control | [2] 101 % of control | [26] 98 % of control | [3] 97 % of control

CC(=O)OC(c1ccccc1)C1CCCCC1N1CCCCC1 (configuration not stated)
inactive: [15] 95 % of control | [16] 96 % of control

COc1ccc(NC(=S)NN)cc1
inactive: dose: 25.0 mg/kg/injection, schedule: Q01DX009 (ip), vehicle: saline with Tween-80 103 % of control | dose: 50.0 mg/kg/injection, schedule: Q01DX009 (ip), vehicle: saline with Tween-80 89 % of control | [27] 95 % of control

CCOC(=O)C(C(=O)O)C(C)C (configuration not stated)
inactive: [5] 97 % of control | [6] 93 % of control

c1ccc(Oc2ccccc2)cc1
inactive: [28] 105 % of control | [29] 101 % of control | [30] 97 % of control

N=Nc1ccc2c(O)c3ccccc3c(O)c2c1
inactive: [17] 107 % of control | dose: 100.0 mg/kg/injection, schedule: Q01DX009 (ip), vehicle: carboxymethylcellulose (CMC) 100 % of control and 103 % of control | [9] 103 % of control | [18] 101 % of control | [19] 104 % of control | dose: 200.0 mg/kg/injection, schedule: Q01DX009 (ip), vehicle: carboxymethylcellulose (CMC) 98 % of control and 100 % of control | [12] 105 % of control and 106 % of control | [20] 98 % of control | [21] 105 % of control | dose: 400.0 mg/kg/injection, schedule: Q01DX009 (ip), vehicle: carboxymethylcellulose (CMC) 94 % of control and 96 % of control | [14] 97 % of control and 105 % of control | [22] 101 % of control

COc1cc(NC(=O)Nc2cc([N+](=O)[O-])ccc2C)c(OC)cc1Cl
inactive: dose: 100.0 mg/kg/injection, schedule: Q04DX002 (ip), vehicle: Klucel (hydroxypropylcellulose) (HPC) 106 % of control | dose: 200.0 mg/kg/injection, schedule: Q04DX002 (ip), vehicle: Klucel (hydroxypropylcellulose) (HPC) 97 % of control | dose: 400.0 mg/kg/injection, schedule: Q04DX002 (ip), vehicle: Klucel (hydroxypropylcellulose) (HPC) 95 % of control

C[N+]1(C)C2CC(=O)CC1C1CC12 (configuration not stated) (tested in a mixture with another compound)
inactive: [31] 106 % of control | [8] 108 % of control | [10] 94 % of control | [11] 90 % of control | [13] 100 % of control

CCCCC(C=O)(CCN1CCCC1)c1cccc2ccccc12 (configuration not stated)
inactive: dose: 25.0 mg/kg/injection, schedule: Q04DX002 (ip), vehicle: saline with Tween-80 88 % of control | dose: 50.0 mg/kg/injection, schedule: Q04DX002 (ip), vehicle: saline with Tween-80 100 % of control | dose: 100.0 mg/kg/injection, schedule: Q04DX002 (ip), vehicle: saline with Tween-80 103 % of control

CC(C)CCCC(C)CCO (configuration not stated)
inactive: [31] 97 % of control | [8] 105 % of control | [11] 103 % of control

COc1cccc(OC)c1C1(O)c2c(OC)cccc2Oc2cccc(OC)c21
inactive: [27] 93 % of control | dose: 200.0 mg/kg/injection, schedule: Q01DX009 (ip), vehicle: saline with Tween-80 90 % of control | dose: 400.0 mg/kg/injection, schedule: Q01DX009 (ip), vehicle: saline with Tween-80 90 % of control

ON=C1CCC(=NO)CC1
inactive: [23] 95 % of control | dose: 200.0 mg/kg/injection, schedule: Q01DX001 (ip), vehicle: saline with Tween-80 98 % of control | dose: 400.0 mg/kg/injection, schedule: Q01DX001 (ip), vehicle: saline with Tween-80 103 % of control

CC(=O)c1cccc(NC(=O)Nc2ncccc2C)c1
inactive: [24] 102 % of control | [25] 101 % of control | [26] 98 % of control

c1ccc(CNCC(NCc2ccccc2)c2ccccc2)cc1 (configuration not stated)
inactive: [1] 91 % of control | [28] 93 % of control | [2] 93 % of control | [29] 97 % of control | [3] 98 % of control | [30] 88 % of control

CC(=O)OC(C(=O)NC(CC(C)C)C(=O)O)c1ccccc1 (configuration not stated)
inactive: dose: 100.0 mg/kg/injection, schedule: Q01DX001 (ip), vehicle: acetone 98 % of control | dose: 200.0 mg/kg/injection, schedule: Q01DX001 (ip), vehicle: acetone 94 % of control | dose: 400.0 mg/kg/injection, schedule: Q01DX001 (ip), vehicle: acetone 98 % of control

O=C1COc2ccc(Cl)cc2N1
inactive: [24] 100 % of control | [25] 97 % of control | [26] 119 % of control
